Test results taken from patent EP4685153A1 (priority 2023, dated 2024).
Residues, ends and D or L forms follow the SMILES beside them. *: point of attachment. Succinyl(4-O-cholesteryl) = CC(C)CCC[C@@H](C)[C@H]1CC[C@H]2[C@@H]3CC=C4C[C@@H](OC(=O)CCC(=O)*)CC[C@]4(C)[C@H]3CC[C@]12C

Key:
[1] = test system: T20-resistant mutant strains (HIV-1 strain NL4-3); conditions: T20-resistant mutant strains ( strain NL4-3, 48 h)
[2] = Circular dichroism of lipopeptide alone; type: physicochemical; conditions: CD, 10 µM in PBS pH 7.2
[3] = test system: HIV-1 strain NL4-3 pseudovirus; conditions: for IC50: strain NL4-3 pseudovirus
[4] = test system: HIV-1 strain JRFL pseudovirus; conditions: for IC50: strain JRFL pseudovirus
[5] = test system: HIV-1 strain SG3.1 living virus; conditions: for IC50: strain SG3.1 living virus
N44 = N44 (Human immunodeficiency virus type 1 group M subtype B, UniProt P04578); test: Circular dichroism of lipopeptide complex with target sequence N44; conditions: CD; for Tm value of the mixture with N44: [θ]222, 20-98 °C at 2 °C/min; for α-helix content of the mixture with N44: lipopeptide and N44 each 10 µM in PBS pH 7.2
N44, sequence (P04578 538-581): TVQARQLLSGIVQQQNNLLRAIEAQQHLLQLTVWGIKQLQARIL

[6] = LP-124 versus LP-122, LP-125 versus LP-123

CC[C@H](C)[C@H](NC(=O)[C@H](CCCCN)NC(=O)[C@H](CCC(N)=O)NC(=O)[C@H](CCC(=O)O)NC(=O)[C@H](Cc1ccc(O)cc1)NC(C)=O)C(=O)N[C@@H](CCC(=O)O)C(=O)N[C@@H](CCC(=O)O)C(=O)N[C@@H](CC(C)C)C(=O)N[C@@H](CC(C)C)C(=O)N[C@@H](CCCCN)C(=O)N[C@@H](CCCCN)C(=O)N[C@@H](C)C(=O)N[C@@H](CCC(=O)O)C(=O)N[C@@H](CCC(=O)O)C(=O)N[C@@H](CCC(N)=O)C(=O)N[C@@H](CCC(N)=O)C(=O)N[C@@H](CCCCN)C(=O)N[C@@H](CCCCN)C(=O)N[C@@H](CC(N)=O)C(=O)N[C@@H](CCC(=O)O)C(=O)N[C@@H](CCC(=O)O)C(=O)N[C@@H](CC(C)C)C(=O)N[C@@H](CCCCN)C(=O)N[C@@H](CCCCN)C(=O)N[C@@H](CC(C)C)C(=O)N[C@@H](CCC(=O)O)C(=O)N[C@@H](CCCCNC(=O)CCC(=O)O[C@H]1CC[C@@]2(C)C(=CC[C@H]3[C@@H]4CC[C@H]([C@H](C)CCCC(C)C)[C@@]4(C)CC[C@@H]32)C1)C(N)=O [LP-98, reference compound] (Ac-YEQKIEELLKKAEEQQKKNEELKKLEK(Succinyl(4-O-cholesteryl))-NH2)
IC50 [1]: 2660 pM

CC[C@H](C)[C@H](NC(=O)[C@H](CCCCN)NC(=O)[C@H](CCCCN)NC(=O)[C@H](CCC(=O)O)NC(=O)[C@H](Cc1c[nH]c2ccccc12)NC(=O)[C@H](CCC(=O)O)NC(=O)[C@H](CCC(=O)O)NC(=O)[C@H](Cc1c[nH]c2ccccc12)NC(=O)[C@@H](NC(=O)[C@H](CCSC)NC(=O)[C@H](CCC(=O)O)NC(C)=O)[C@@H](C)O)C(=O)N[C@@H](CCC(=O)O)C(=O)N[C@@H](CCC(=O)O)C(=O)N[C@@H](CC(C)C)C(=O)N[C@@H](CCC(=O)O)C(=O)N[C@@H](CCCCN)C(=O)N[C@@H](CCCCN)C(=O)N[C@H](C(=O)N[C@@H](CCC(=O)O)C(=O)N[C@@H](CCC(=O)O)C(=O)N[C@@H](CC(C)C)C(=O)N[C@@H](CC(C)C)C(=O)N[C@@H](CCCCN)C(=O)N[C@@H](CCCCN)C(=O)N[C@@H](C)C(=O)N[C@@H](CCC(=O)O)C(=O)N[C@@H](CCC(=O)O)C(=O)N[C@@H](CCC(N)=O)C(=O)N[C@@H](CCC(N)=O)C(=O)N[C@@H](CCCCN)C(=O)N[C@@H](CCCCN)C(=O)N[C@@H](CC(N)=O)C(=O)N[C@@H](CCC(=O)O)C(=O)N[C@@H](C)C(=O)N[C@@H](C)C(=O)N[C@@H](C)C(=O)N[C@@H](CCCCN)C(=O)N[C@@H](CCCCNC(=O)CCC(=O)O[C@H]1CC[C@@]2(C)C(=CC[C@H]3[C@@H]4CC[C@H]([C@H](C)CCCC(C)C)[C@@]4(C)CC[C@@H]32)C1)C(N)=O)[C@@H](C)CC [LP-121] (Ac-EMTWEEWEKKIEELEKKIEELLKKAEEQQKKNEAAAKK(Succinyl(4-O-cholesteryl))-NH2)
α-helix content, lipopeptide alone [2]: 69%
IC50 [3]: 52 pM
IC50 [4]: 42.4 pM
IC50 [5]: 9.88 pM
Tm value of the mixture with N44 (N44): > 98 °C
α-helix content of the mixture with N44 (N44): 81%

CC[C@H](C)[C@H](NC(=O)[C@H](CCCCN)NC(=O)[C@H](CCCCN)NC(=O)[C@H](CCC(=O)O)NC(=O)[C@H](Cc1c[nH]c2ccccc12)NC(=O)[C@H](CCC(=O)O)NC(=O)[C@H](CCC(=O)O)NC(=O)[C@H](Cc1c[nH]c2ccccc12)NC(=O)[C@@H](NC(C)=O)[C@@H](C)O)C(=O)N[C@@H](CCC(=O)O)C(=O)N[C@@H](CCC(=O)O)C(=O)N[C@@H](CC(C)C)C(=O)N[C@@H](CCC(=O)O)C(=O)N[C@@H](CCCCN)C(=O)N[C@@H](CCCCN)C(=O)N[C@H](C(=O)N[C@@H](CCC(=O)O)C(=O)N[C@@H](CCC(=O)O)C(=O)N[C@@H](CC(C)C)C(=O)N[C@@H](CC(C)C)C(=O)N[C@@H](CCCCN)C(=O)N[C@@H](CCCCN)C(=O)N[C@@H](C)C(=O)N[C@@H](CCC(=O)O)C(=O)N[C@@H](CCC(=O)O)C(=O)N[C@@H](CCC(N)=O)C(=O)N[C@@H](CCC(N)=O)C(=O)N[C@@H](CCCCN)C(=O)N[C@@H](CCCCN)C(=O)N[C@@H](CC(N)=O)C(=O)N[C@@H](CCC(=O)O)C(=O)N[C@@H](CCC(N)=O)C(=O)N[C@@H](CCC(=O)O)C(=O)N[C@@H](C)C(=O)N[C@@H](C)C(=O)N[C@@H](C)C(=O)N[C@@H](CCCCN)C(=O)N[C@@H](CCCCNC(=O)CCC(=O)O[C@H]1CC[C@@]2(C)C(=CC[C@H]3[C@@H]4CC[C@H]([C@H](C)CCCC(C)C)[C@@]4(C)CC[C@@H]32)C1)C(N)=O)[C@@H](C)CC [LP-122] (Ac-TWEEWEKKIEELEKKIEELLKKAEEQQKKNEQEAAAKK(Succinyl(4-O-cholesteryl))-NH2)
α-helix content, lipopeptide alone [2]: 65%
IC50 [3]: 22.5 pM
IC50 [4]: 41.5 pM
IC50 [5]: 9.05 pM
Tm value of the mixture with N44 (N44): > 98 °C
α-helix content of the mixture with N44 (N44): 81%

CC[C@H](C)[C@H](NC(=O)[C@H](CCCCN)NC(=O)[C@H](CCCCN)NC(=O)[C@H](CCC(=O)O)NC(=O)[C@H](Cc1ccc(O)cc1)NC(=O)[C@H](CCC(=O)O)NC(=O)[C@H](CCC(=O)O)NC(=O)[C@H](Cc1ccc(O)cc1)NC(=O)[C@@H](NC(C)=O)[C@@H](C)O)C(=O)N[C@@H](CCC(=O)O)C(=O)N[C@@H](CCC(=O)O)C(=O)N[C@@H](CC(C)C)C(=O)N[C@@H](CCC(=O)O)C(=O)N[C@@H](CCCCN)C(=O)N[C@@H](CCCCN)C(=O)N[C@H](C(=O)N[C@@H](CCC(=O)O)C(=O)N[C@@H](CCC(=O)O)C(=O)N[C@@H](CC(C)C)C(=O)N[C@@H](CC(C)C)C(=O)N[C@@H](CCCCN)C(=O)N[C@@H](CCCCN)C(=O)N[C@@H](C)C(=O)N[C@@H](CCC(=O)O)C(=O)N[C@@H](CCC(=O)O)C(=O)N[C@@H](CCC(N)=O)C(=O)N[C@@H](CCC(N)=O)C(=O)N[C@@H](CCCCN)C(=O)N[C@@H](CCCCN)C(=O)N[C@@H](CC(N)=O)C(=O)N[C@@H](CCC(=O)O)C(=O)N[C@@H](CCC(N)=O)C(=O)N[C@@H](CCC(=O)O)C(=O)N[C@@H](C)C(=O)N[C@@H](C)C(=O)N[C@@H](C)C(=O)N[C@@H](CCCCN)C(=O)N[C@@H](CCCCNC(=O)CCC(=O)O[C@H]1CC[C@@]2(C)C(=CC[C@H]3[C@@H]4CC[C@H]([C@H](C)CCCC(C)C)[C@@]4(C)CC[C@@H]32)C1)C(N)=O)[C@@H](C)CC [LP-124] (Ac-TYEEYEKKIEELEKKIEELLKKAEEQQKKNEQEAAAKK(Succinyl(4-O-cholesteryl))-NH2)
α-helix content, lipopeptide alone [2]: 64%
activity increased as compared to its template, NL4-3 pseudovirus [3, 6]: about 11 folds
IC50 [3]: 2.07 pM
activity increased as compared to its template, JRFL pseudovirus [4, 6]: ~7 folds
IC50 [4]: 5.93 pM
activity increased as compared to its template, SG3.1 living virus [5, 6]: ~9 folds
IC50 [5]: 1.06 pM
Tm value of the mixture with N44 (N44): 86 °C
α-helix content of the mixture with N44 (N44): 79%

CC[C@H](C)[C@H](NC(=O)[C@H](CCCCN)NC(=O)[C@H](CCCCN)NC(=O)[C@H](CCC(=O)O)NC(=O)[C@H](Cc1ccc(O)cc1)NC(=O)[C@H](CCC(=O)O)NC(=O)[C@H](CCC(=O)O)NC(=O)[C@H](Cc1ccc(O)cc1)NC(=O)[C@H](CCC(=O)O)NC(C)=O)C(=O)N[C@@H](CCC(=O)O)C(=O)N[C@@H](CCC(=O)O)C(=O)N[C@@H](CC(C)C)C(=O)N[C@@H](CCC(=O)O)C(=O)N[C@@H](CCCCN)C(=O)N[C@@H](CCCCN)C(=O)N[C@H](C(=O)N[C@@H](CCC(=O)O)C(=O)N[C@@H](CCC(=O)O)C(=O)N[C@@H](CC(C)C)C(=O)N[C@@H](CC(C)C)C(=O)N[C@@H](CCCCN)C(=O)N[C@@H](CCCCN)C(=O)N[C@@H](C)C(=O)N[C@@H](CCC(=O)O)C(=O)N[C@@H](CCC(=O)O)C(=O)N[C@@H](CCC(N)=O)C(=O)N[C@@H](CCC(N)=O)C(=O)N[C@@H](CCCCN)C(=O)N[C@@H](CCCCN)C(=O)N[C@@H](CC(N)=O)C(=O)N[C@@H](CCC(=O)O)C(=O)N[C@@H](C)C(=O)N[C@@H](C)C(=O)N[C@@H](C)C(=O)N[C@@H](CCCCN)C(=O)N[C@@H](CCCCNC(=O)CCC(=O)O[C@H]1CC[C@@]2(C)C(=CC[C@H]3[C@@H]4CC[C@H]([C@H](C)CCCC(C)C)[C@@]4(C)CC[C@@H]32)C1)C(N)=O)[C@@H](C)CC [LP-126] (Ac-EYEEYEKKIEELEKKIEELLKKAEEQQKKNEAAAKK(Succinyl(4-O-cholesteryl))-NH2)
α-helix content, lipopeptide alone [2]: 51%
IC50 [3]: 3.85 pM
IC50 [4]: 6.08 pM
IC50 [5]: 1.65 pM
Tm value of the mixture with N44 (N44): 92 °C
α-helix content of the mixture with N44 (N44): 66%
